# From patent US4551538A, “Phenylpyrazolidine acetic acid derivatives” (American Home Products Corporation, priority 1984, dated 1985)
# Several values for one entry are separate records, joined by “and”; a condition that tells them apart may be missing. Equal values may be shown once. Read-outs that look alike come from different tables or passages of the source.
# Columns and labels:
# [1] = tested on: arachidonic acid lipoxygenase oxidation product 5-HETE; experiment: inhibition of 5-HETE synthesis by rat glycogen-elicited polymorphonuclear leukocytes; type: cell-based, rat (Wistar); conditions: Leukocyte, read-out: 50% Inhibitory Concentration of (IC50) 5-HETE
# Protocol: The assay of this Example measures the ability of the compounds of the invention to inhibit the synthesis of 5-HETE by rat glycogen-elicited polymorphonuclear leukocytes.
# The assay is carried out as follows:
# (§1) Peritoneal PMN are obtained from female Wistar rats (150-250 g) that received an i.p. injection of 6% glycogen (10 ml). After 24 hours, rats are killed by CO2 asphyxiation and peritoneal cells are harvested by peritoneal lavage using Ca^++ and Mg^++ free Hanks' balanced salt solution (HBSS). The peritoneal exudate is centrifuged at 400 g for 10 minutes. After centrifugation, the lavaged fluid is removed and the cell pellet is resuspended in HBSS containing Ca^++ and Mg^++ and 10 mM L-cysteine at a concentration of 2×10^7 cells/ml. To 1 ml portions of cell suspension, test drugs or vehicle are added and incubated at 37° C. for 10 minutes. Following this preincubation, the calcium ionophore (10 μM), A23187, is added together with 0.5 μCi [^14 C] arachidonic acid and further incubated for 10 minutes. The reaction is stopped by the addition of ice cold water (3 ml) and acidifying to pH 3.5. Lipoxygenase products are then extracted twice into diethyl ether. The pooled ether extracts are evaporated to dryness under nitrogen and the residue is redissolved in a small volume of methanol and spotted on aluminum backed pre-coated thin layer chromatographic plates. The samples are then co-chromatographed with authentic reference 5-HETE, in the solvent system--hexane:ether:acetic acid (50:50:3). After chromatography, the areas associated with 5-HETE standard are identified by autoradiography, cut out and quantitated by liquid scintillation.
# (§2) Results are expressed as % inhibition of [^14 C]5-HETE synthesis. [formula]
# [2] = tested on: arachidonic acid cyclooxygenase oxidation product PGE2; experiment: inhibition of PGE2 synthesis by rat polymorphonuclear leukocytes; type: cell-based, rat (Wistar); conditions: read-out: 50% Inhibitory Concentration (IC50), PGE2
# Protocol: as §1, §2
# However, in order to determine cyclooxygenase activity, the samples are cochromatographed with authentic reference PGE2 in the solvent system ethyl acetate:formic acid (80:1) and the upper phase of ethyl acetate:isoctane:acetic acid:water (110:50:20:100). After chromatography, the areas associated with PGE2 standard are identified by autoradiography, cut out and quantitated by liquid scintillation techniques.
# [3] = tested on: acute inflammatory response (carrageenan rat paw edema); experiment: carrageenan rat paw edema test; type: in vivo, rat (Sprague-Dawley); conditions: for ED50: Rattus norvegicus, po, 3 h, read-out: ED50, paw edema; for % Inhibition of paw edema: 200 mg/kg perorally, 3 h reading; for profile of activity in carrageenan rat paw edema test: in vivo
# Protocol: In this test, male Sprague-Dawley (Charles River) rats weighing 140-180 gm, in groups of 6 animals, are injected subcutaneously in the right paw with 0.1 ml of 1% carrageenan at zero time. Mercury plethysmographic readings (ml) of the paw are made at zero time and 3 hours later. Drugs are suspended or dissolved in 0.5% methylcellulose and given perorally one hour prior to carrageenan. The increase in paw volume (edema in ml) produced by the inflammatory agent, carrageenan, is measured.
# Unpaired Student's t-test is used to determine statistical significance.
# [4] = tested on: AA-induced mouse ear edema; experiment: arachidonic acid (AA)-induced murine ear edema test; type: in vivo, mouse (Swiss Webster); conditions: for % Change from Control, AA ear edema: * p ≤ 0.05
# Source text: (§3) The ability of the compounds of the invention to inhibit the lipoxygenase and cyclooxygenase pathways of arachidonic acid is examined in the in vivo arachidonic acid (AA)-/12-O-tetradecanoylphorbol acetate (TPA)-induced murine ear edema test.
# (§4) According to this test, Swiss Webster female mice (Buckshire), approximately 8 weeks old, are placed into plastic boxes in groups of six. Eight groups of mice receive AA topically on the right ear, and another 8 groups receive TPA topically on the right ear. AA and TPA are dissolved in acetone at concentrations of 100 mg/ml and 100 μg/ml respectively. The phlogistics are applied to the right ear by the means of an automatic pipet. Volumes of 10 μl are applied to the inner and outer surfaces of the ear. Each mouse receives either 2 mg/ear AA or 4 μg/ear TPA. The left ear (control) receives acetone delivered in the same manner. Oral and topical dosing regimens are as follows: (1) drugs are given 30 minutes prior to AA treatment, and (2) drugs are given 30 minutes after treatment with TPA.
# (§5) Measurements are taken with Oditest calipers, 0-10 mm with 0.01 graduations. The right and left ears are measured after 1 hour AA-induced inflammation and 4 hours after TPA-induced inflammation.
# (§6) The difference between right and left ear thickness is calculated and the significance is determined by a one way analysis of variance with Dunnett's comparisons to control (P=0.05). Drug effects are expressed as a percent change from control values: [formula]
# [5] = tested on: TPA-induced mouse ear edema; experiment: 12-O-tetradecanoylphorbol acetate (TPA)-induced murine ear edema test; type: in vivo, mouse (Swiss Webster); conditions: for % Change from Control, TPA ear edema: * p ≤ 0.05
# Source text: as §3, §4, §5, §6
# [6] = tested on: urate-induced canine synovitis; experiment: urate-induced canine synovitis test; type: in vivo, dog (mongrel); conditions: Canis lupus familiaris, read-out: Oral ED50
# Protocol: In this procedure, healthy mongrel dog of either sex weighing between 14-20 kg are adapted to a measuring platform. […] A Hewlett Packard 75C computer then converts voltage into kilogram units (mean pressure reading for 1 minute). This control pressure represents the 100% value in this procedure. Synovitis is induced by injecting 5 mg of sodium urate crystals (5-15μ in length) in 1 ml of 0.9% saline solution into the synovial space of the right or left knee. Readings are taken at 1, 2, 2.5, 3, 3.5, 4, 4.5 and 5 hours after urate administration and calculated as a percentage of control hind paw pressure. […] Dogs are used only once in these experiments to prevent tolerance.
# Each dog is placed on the pressure measuring apparatus with its left or right hind paw centered above the load cell, and pressure readings are recorded for one minute. Two or three control readings are averaged and represent control paw pressure. Single pressure readings are taken after sodium urate injection.
# Drug effects are expressed as a percentage of control paw pressure which is calculated as follows:
# Test reading/Control reading×100
# Test reading=Pressure measurement after sodium urate injection and drug or no drug (blank capsule).
# Control reading=Mean pressure measurement before sodium urate injection.
# A one-way analysis of variance with Dunnett's comparisons to control (α=0.05 and 0.01) was used to determine statistical significance.
# [7] = tested on: phenylbenzoquinone-induced writhing; experiment: phenylbenzoquinone-induced writhing test; type: in vivo, mouse (CF-1)
# Protocol: In this procedure, test compound or vehicle is administered at various doses to ten male CF-1 mice, weighing 20-25 g, per dose level. The animals then receive intraperitoneal injection with 0.25 ml of the writhing agonist (a 0.02% solution of benzoquinone) 5 minutes before the beginning of a pre-selected, 10-minute observation period. Typical observation periods include 10 to 20, 25 to 35, 40 to 50 and 55 to 65 minutes following administration of the test compound. The mice are observed during the observation period and the total numbers of writhes are determined for each mouse.
# cyclooxygenase = conditions: background statement; cited from earlier work
# lipoxygenase = conditions: background statement; cited from earlier work
# [8] = rat PMN, A23187 10 μM, [14C] arachidonic acid
# [9] = Leukocyte, rat PMN, A23187 10 μM, [14C] arachidonic acid
# [10] = 200 mg/kg; Control = 15.5; * p ≤ 0.05
compound,measurement,setting,value
"NC1=NN(c2cccc(C(F)(F)F)c2)CC1 [BW755C, 3-amino-1-[m-(trifluoromethyl)phenyl]-2-pyrazoline, reference compound]",IC50,[1]; Rattus norvegicus,43 µM
same,IC50,"[2]; Rattus norvegicus, Leukocyte",25 µM
same,ED50,"[3]; perorally, 1 h prior to carrageenan",72 mg/kg
same,ED50,"[4]; Mus musculus, 1 h, oral",65 mg/kg
same,ED50,"[5]; Mus musculus, 4 h, oral",88 mg/kg
same,ED50,"[6]; oral, 2 h after urate",1.5 mg/kg
same,ED50,"[7]; Mus musculus; read-out: ED50, writhing",100 mg/kg
same,inhibition of cyclooxygenase activity,cyclooxygenase,inhibitors of both cyclooxygenase and lipoxygenase activity
same,inhibition of lipoxygenase activity,lipoxygenase,inhibitors of both cyclooxygenase and lipoxygenase activity
"O=C(O)C(O)N1C(=O)CCN1c1cccc(C(F)(F)F)c1 (stereo not drawn) [Example 1, α-Hydroxy-5-oxo-2-[3-(trifluoromethyl)phenyl]-1-pyrazolidine acetic acid]",IC50,[2]; [8],< 50 µM
same,"% Change from Control, AA ear edema","[4]; topical, 1.0 mg/ear",-83% and -74%
"O=C(O)C(O)N1C(=O)CCN1c1ccccc1 (stereo not drawn) [Example 2, α-Hydroxy-5-oxo-2-phenyl-1-pyrazolidine acetic acid]",IC50,[1]; [8],3 to 5 µM
same,% Inhibition of paw edema,[3]; 1 h prior to carrageenan,46%
same,profile of activity in carrageenan rat paw edema test,[3],a profile of activity similar to that of phenidone
same,"% Change from Control, AA ear edema","[4]; oral, 100 mg/kg, 1 h after AA",-30%
same,"% Change from Control, AA ear edema","[4]; topical, 0.1 mg/ear",-21%
same,"% Change from Control, AA ear edema","[4]; topical, 0.33 mg/ear",-26%
same,"% Change from Control, AA ear edema","[4]; topical, 1.0 mg/ear",-54%
same,"% Change from Control, TPA ear edema","[5]; oral, 100 mg/kg, 4 h after TPA",-8%
same,"% Change from Control, TPA ear edema","[5]; topical, 0.1 mg/ear",-12%
same,"% Change from Control, TPA ear edema","[5]; topical, 0.33 mg/ear",-31%
same,"% Change from Control, TPA ear edema","[5]; topical, 1.0 mg/ear",-23%
same,ED50,"[6]; oral, 2 h after urate",5 mg/kg
same,Mean No. of Writhes,[7]; 100 mg/kg; Control = 5.1,3.5
same,Mean No. of Writhes,[7]; 133 mg/kg; Control = 15.5; * p ≤ 0.05,3.2
"O=C(O)C(O)N1C(=O)CCN1c1cccc(Cl)c1 (stereo not drawn) [Example 3, 2-(m-Chlorophenyl)-α-hydroxy-5-oxo-1-pyrazolidine acetic acid]",IC50,[1]; [8],2 to 5 µM
same,IC50,[2]; [9],110 µM
same,% Inhibition of paw edema,[3]; 1 h prior to carrageenan,29%
same,"% Change from Control, AA ear edema","[4]; oral, 50 mg/kg, 1 h after AA",-5%
same,"% Change from Control, TPA ear edema","[5]; oral, 50 mg/kg, 4 h after TPA",-8%
"O=C(O)C(O)N1C(=O)CCN1c1cccc(F)c1 (stereo not drawn) [Example 4, 2-(3-Fluorophenyl)-α-hydroxy-5-oxo-1-pyrazolidine acetic acid]",IC50,[1]; [8],5 to 13 µM
same,% Inhibition of paw edema,[3]; 1 h prior to carrageenan,44%
same,profile of activity in carrageenan rat paw edema test,[3],a profile of activity similar to that of phenidone
same,"% Change from Control, AA ear edema","[4]; oral, 100 mg/kg, 1 h after AA",-11%
same,"% Change from Control, AA ear edema","[4]; topical, 0.1 mg/ear",-27%
same,"% Change from Control, AA ear edema","[4]; topical, 0.33 mg/ear",-38%
same,"% Change from Control, AA ear edema","[4]; topical, 1.0 mg/ear",-63%
same,"% Change from Control, TPA ear edema","[5]; oral, 50 mg/kg, 4 h after TPA",0%
same,"% Change from Control, TPA ear edema","[5]; oral, 100 mg/kg, 4 h after TPA",-27%
same,"% Change from Control, TPA ear edema","[5]; topical, 0.1 mg/ear",-10%
same,"% Change from Control, TPA ear edema","[5]; topical, 0.33 mg/ear",-23%
same,"% Change from Control, TPA ear edema","[5]; topical, 1.0 mg/ear",-45%
same,Mean No. of Writhes,[7]; 100 mg/kg; Control = 4.5,3.8
same,Mean No. of Writhes,[7]; [10],1.7
"O=C(O)C(O)N1C(=O)CCN1c1ccc(Cl)cc1 (stereo not drawn) [Example 5, 2-(4-Chlorophenyl)-α-hydroxy-5-oxo-1-pyrazolidine acetic acid]",IC50,[1]; [8],2 to 3 µM
same,IC50,[2]; [9],140 µM
same,% Inhibition of paw edema,[3]; 1 h prior to carrageenan,30%
same,"% Change from Control, AA ear edema","[4]; oral, 50 mg/kg, 1 h after AA",-22%
same,"% Change from Control, TPA ear edema","[5]; oral, 50 mg/kg, 4 h after TPA",-8%
"O=C(O)C(O)N1C(=O)CCN1c1cccc([N+](=O)[O-])c1 (stereo not drawn) [Example 6, α-Hydroxy-5-oxo-2-(3-nitrophenyl)-1-pyrazolidine acetic acid]",IC50,[1]; [8],< 50 µM
same,"% Change from Control, AA ear edema","[4]; oral, 100 mg/kg, 1 h after AA",+4%
same,"% Change from Control, TPA ear edema","[5]; oral, 100 mg/kg, 4 h after TPA",-23%
"CC(=O)Oc1ccccc1C(=O)O [aspirin, reference compound]",Mean No. of Writhes,[7]; [10],6.6
"COc1ccc2c(c1)c(CC(=O)O)c(C)n2C(=O)c1ccc(Cl)cc1 [indomethacin, reference compound]",ED50,[3],5.6 mg/kg
same,activity in AA ear edema,"[4]; oral, 10 mg/kg",NA(10)
same,"ED50, AA ear edema",[4]; topical,0.1 mg/ear
same,activity in TPA ear edema,"[5]; oral, 10 mg/kg",NA(10)
same,"ED50, TPA ear edema",[5]; topical,0.08 mg/ear
same,ED50,"[6]; po, 2 h",0.3 mg/kg
same,ED50,"[7]; Mus musculus, read-out: ED50, writhing",10 mg/kg
